# Test results reported in publication PMC6522912, “Evaluation of the published kinase inhibitor set to identify multiple inhibitors of bacterial ATP-dependent mur ligases” (Journal of Enzyme Inhibition and Medicinal Chemistry, 2019).
# Where two headings read alike, the source gives them in different places.
# What was measured:
# E. coli MurC = E. coli MurC (Escherichia coli, UniProt P17952); test: Malachite green inhibition assay, MurC; type: biochemical; conditions: 0.25 h, Table S1, PKIS screening; read-out: RA [%] at 100 µM MurC
# E. coli MurC, sequence (P17952 whole entry): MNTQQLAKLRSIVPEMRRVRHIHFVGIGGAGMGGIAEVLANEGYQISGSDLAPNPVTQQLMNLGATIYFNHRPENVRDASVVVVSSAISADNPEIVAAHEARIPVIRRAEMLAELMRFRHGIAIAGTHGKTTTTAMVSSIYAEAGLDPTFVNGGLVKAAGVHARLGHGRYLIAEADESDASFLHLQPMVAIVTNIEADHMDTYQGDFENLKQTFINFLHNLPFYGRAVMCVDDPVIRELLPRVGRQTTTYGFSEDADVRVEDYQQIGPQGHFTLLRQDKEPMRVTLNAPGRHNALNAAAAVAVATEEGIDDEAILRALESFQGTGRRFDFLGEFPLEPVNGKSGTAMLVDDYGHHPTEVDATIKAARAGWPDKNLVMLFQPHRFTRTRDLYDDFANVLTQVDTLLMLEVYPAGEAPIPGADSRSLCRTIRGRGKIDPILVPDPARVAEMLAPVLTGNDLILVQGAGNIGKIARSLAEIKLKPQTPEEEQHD
# E. coli MurD = E. coli MurD (Escherichia coli, UniProt P14900); test: biochemical; conditions: 0.25 h, read-out: RA [%] at 100 µM MurD
# E. coli MurD, sequence (P14900 whole entry): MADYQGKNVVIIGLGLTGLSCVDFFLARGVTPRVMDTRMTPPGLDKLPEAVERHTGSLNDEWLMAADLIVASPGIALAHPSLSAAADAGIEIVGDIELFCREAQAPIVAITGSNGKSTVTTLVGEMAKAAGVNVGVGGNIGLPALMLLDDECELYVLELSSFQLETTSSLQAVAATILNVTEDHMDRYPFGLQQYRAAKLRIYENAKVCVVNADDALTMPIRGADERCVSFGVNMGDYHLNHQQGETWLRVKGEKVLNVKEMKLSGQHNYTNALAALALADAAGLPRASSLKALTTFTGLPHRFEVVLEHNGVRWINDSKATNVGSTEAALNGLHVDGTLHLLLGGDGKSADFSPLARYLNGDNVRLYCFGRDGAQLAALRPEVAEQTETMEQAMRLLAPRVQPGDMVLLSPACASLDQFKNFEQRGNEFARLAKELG
# In short: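 Orthophosphate released by E. coli MurD quantified by malachite green (Biomol green) absorbance at 650 nm after 15 min at 37 °C. Residual activity relative to DMSO-only controls.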
# E. coli MurF = E. coli MurF (Escherichia coli, UniProt P11880); test: biochemical; conditions: 0.25 h, read-out: RA [%] at 100 µM MurF
# E. coli MurF, sequence (P11880 whole entry): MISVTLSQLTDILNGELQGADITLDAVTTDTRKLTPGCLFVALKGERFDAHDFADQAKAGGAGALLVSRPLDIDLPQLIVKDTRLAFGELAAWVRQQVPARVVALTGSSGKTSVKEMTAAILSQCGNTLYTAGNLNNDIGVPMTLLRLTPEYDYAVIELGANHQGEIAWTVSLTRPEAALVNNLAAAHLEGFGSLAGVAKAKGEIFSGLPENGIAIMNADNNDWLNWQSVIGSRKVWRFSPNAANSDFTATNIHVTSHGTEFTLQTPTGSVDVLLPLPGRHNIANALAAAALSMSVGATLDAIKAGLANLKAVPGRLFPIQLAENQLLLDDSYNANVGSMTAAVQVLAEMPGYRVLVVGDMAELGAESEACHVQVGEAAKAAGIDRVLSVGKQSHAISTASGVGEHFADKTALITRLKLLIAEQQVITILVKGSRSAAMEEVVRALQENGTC
SMILES,remaining activity at 100 µM (E. coli MurC),"remaining activity at 100 µM (E. coli MurD; Table S1, PKIS screening)","remaining activity at 100 µM (E. coli MurF; Table S1, PKIS screening)",remaining activity at 100 µM (E. coli MurD),remaining activity at 100 µM (E. coli MurF)
CN1CCN(Cc2ccc(-c3cc4ncnc(Nc5ccc(OCc6cccc(F)c6)c(Cl)c5)c4s3)o2)CC1 [GW784684X],20%,52%,56%,,
CCn1c(-c2nonc2N)nc2ccc(F)cc21 [GW785404X],100%,88%,79%,,
Nc1nc(-c2ccc(F)cc2)c(-c2ccc3ncccc3n2)s1 [GW785804X],100%,82%,78%,,
Cc1cccc(-c2n[nH]cc2-c2ccc3ncccc3n2)n1 [GW786460X],82%,,,76%,91%
Nc1ncnc2occ(-c3ccc(NC(=O)Nc4cc(C(F)(F)F)cc(C(F)(F)F)c4)cc3)c12 [GW795486X],36%,57%,71%,,
Nc1nccc(C#Cc2cncnc2Nc2ccc(OCc3cccc(F)c3)c(Cl)c2)n1 [GW799251X],33%,50%,0%,,
COc1cc(Nc2nccc(-c3cnn4ncccc34)n2)cc(OC)c1 [GW801372X],94%,88%,80%,,
COc1cccc(COc2cc(-n3cnc4ccccc43)sc2C(N)=O)c1 [GW804482X],100%,79%,82%,,
CC(C)c1ccc(Nc2nccc(-c3cnn4ncccc34)n2)cc1 [GW805758X],64%,57%,68%,,
c1cnn2ncc(-c3ccnc(Nc4ccc5c(c4)OCCO5)n3)c2c1 [GW806290X],64%,69%,71%,,
CN(c1ccc(NC(=O)Nc2ccc(OC(F)(F)F)cc2)cc1)c1ccnc(Nc2cccc(S(N)(=O)=O)c2)n1 [GW806742X],64%,92%,93%,,
O=C(NCC1CC1)c1ccc(-c2cccc(C(=O)NC3CC3)c2)cc1 [GW806776X],84%,95%,78%,,
CCOc1ccc2c(-c3ccnc(Nc4cc(OC)cc(C(F)(F)F)c4)n3)cnn2n1 [GW807982X],55%,78%,50%,,
COc1cccc(-n2nc(C)c3c(N/N=C(\C)c4ccncc4)ncnc32)c1 [GW809885X],76%,74%,100%,,
CN(c1ccc(NC(=O)Nc2c(Cl)cccc2Cl)cc1)c1ccnc(Nc2cccc(CS(C)(=O)=O)c2)n1 [GW809897X],26%,55%,51%,,
COc1ccc2c(-c3ccnc(Nc4cccc(OC(F)(F)F)c4)n3)cnn2n1 [GW810372X],46%,70%,73%,,
COc1cccc(-n2ncc3c(N/N=C/c4ccc(S(C)(=O)=O)cc4)ncnc32)c1 [GW811168X],57%,87%,35%,,
CCOc1ccc2c(-c3ccnc(Nc4cccc(C(F)(F)F)c4)n3)cnn2n1 [GW811761X],64%,93%,74%,,
COc1cccc(-n2cnc3c(N/N=C/c4ccncc4)ncnc32)c1 [GW813360X],65%,84%,81%,,
COc1cccc(-n2ncc3c(N/N=C/c4cccc(F)c4)ncnc32)c1 [GW817394X],64%,81%,46%,,
COc1cccc(-n2ncc3c(N/N=C/c4ccc(F)cc4)ncnc32)c1 [GW817396X],69%,95%,41%,,
